In US8440617B2, “Hyperbaric treatment in wound healing” (The Trustees of the University of Pennsylvania, priority 2007, dated 2013):

What was measured:
Type in all cases: in vivo, mouse
[1] = tested on: NO synthesis in bone marrow (NOS); assay: Real-time bone marrow NO measurement with NO microelectrode during HBO; settings: diabetic mice, insulin 6 U/kg twice/d i.p.
Experimental: For HBO treatment, mice were placed in an animal hyperbaric chamber (Reneau Corp.) and subjected to 100% oxygen at 2.4 atmospheres absolute (ATA) for 90 min (Davis Wound Healing Protocol). To measure continuous, real-time BM NO levels, NO microelectrodes was inserted into the femoral marrow cavity as previously described. An osteotomy was created on the patellar surface of the murine femur using a 25 G beveled needle, allowing the electrode to be lowered into the marrow space when the animal was placed in the hyperbaric chamber. In some mice, pretreatment with L-NAME (40 mg/kg i.p.) (Sigma-Aldrich) was given 2 h prior to exposure to HBO.
In early studies, it was hypothesized that HBO2 augments stem cell mobilization because it stimulates •NO synthesis in the bone marrow, as •NO is known to play a central role with stem cell release from bone marrow. […] Mice were placed in a hyperbaric chamber where, while breathing air, baseline measurements were obtained. The chamber was then flushed with 100% O2 and compressed to 2.4 ATA O2.
Physiologically, the NO-mediated EPC release into circulation occurs in response to tissue-level hypoxia, although this compensatory response is inadequate in the setting of diabetes and results in severe defects in neovascularization and wound healing. […] Therefore, it was sought to utilize HBO as a tool to augment EPC release into circulation and further study both EPC mobilization and wound-homing mechanisms in the presence of diabetes. The goal was to determine whether hyperoxia stimulates NO production in the BM of diabetic mice via a NOS-mediated pathway and whether this pathway is impaired in diabetes. To test this hypothesis, Nafion polymer—coated NO microsensors were inserted into the femur BM space of both STZ induced diabetic and nondiabetic mice to measure real-time NO levels within the BM prior to and is during HBO-induced hyperoxia. […] It was speculated, that this was likely due to a compensatory effect from other NOS isoforms, and therefore the level of both iNOS and nNOS was examined in diabetic mice. […] However, no observation was made of any changes in the phosphorylation of these NOS isoforms.

BM eNOS phosphorylation = assay: Western blot of bone marrow eNOS and phospho-eNOS; settings: diabetic mice treated with insulin
Experimental: Isolation of whole BM from FVB/NJ mice (n=12/group) was obtained by flushing harvested femurs and tibias with PBS/2% FBS. Red blood cells were removed by Red Cell Lysis Buffer (Sigma-Aldrich). Isolated BM cells were then lysed and protein concentrations were determined by DC protein assay (Bio-Rad Laboratories). Equal amounts of protein were subjected to 4-12% SDS gel electrophoresis under reducing conditions. The transferred PVDF membranes were probed with primary Ab (anti-eNOS and anti-phospho-eNOS (Ser^1177) (BD Biosciences) diluted 1:500 in 1% milk in TBST buffer and then incubated with HRP-conjugated second Ab (DakoCytomation Inc.). Proteins were visualized using enhanced chemiluminescence (Amersham Bioscience).
In diabetic patients, circulating EPCs are decreased in both number and function, and so it was hypothesized that BM eNOS activation is impaired in diabetes. To examine this question, BM was isolated from streptozocin-induced (STZ-induced) diabetic and nondiabetic mice and analyzed via Western blot for levels of total and phosphorylated eNOS protein. Although no changes in the amount of total eNOS protein were observed, the levels of biologically active phosphorylated eNOS protein were decreased in diabetic mice as compared with nondiabetic controls (FIG. 12A). […]

SDF-1α in wound tissue = assay: Wound SDF-1α level (immunostaining); settings: diabetic mice treated with insulin
Description: For immunostaining, paraffin embedded serial sections (5 μm) were first underwent standard deparaffinizing and rehydration procedures and then probed with various Abs. To assess wound SDF-1α^+ cells, sections were double-stained with HTC-conjugated anti-SDF-1α and PE-conjugated different tissue-specific Abs (eBiosciences). To detect blood vessels in wound, sections were stained with HTC-conjugated anti-VEGFR2Ab. For examination of wound EPC recruitment in BM transplantation experiment, sections were double-stained with FITC-GFP and PE-VEGFR2 (BD Biosciences). Nuclei were counterstained with Hoescht dye. Masson's trichrome staining and H&E staining were performed using standard method and all reagents were from Sigma-Aldrich. Tissue sections were analyzed using fluorescence microscopy and ImageJ (NIH) software to quantitate fluorescent intensity. In trichrome stained slides, blue stain (collagen content) was also quantitatively analyzed by ImageJ.

## insulin: human insulin (NPH), 6 U/kg twice/d i.p.
[1]
  reversal of impaired BM NO production: little effect
[1]; listed as Insulin
  reversal of impaired BM NO production: did not reverse
BM eNOS phosphorylation
  reversal of impaired BM eNOS phosphorylation: little effect
BM eNOS phosphorylation; listed as Insulin
  reversal of impaired BM eNOS phosphorylation: failed to restore
SDF-1α in wound tissue
  impaired wound SDF-1α production: failed to improve
